Literature values as cited in article doi:10.1101/2025.04.01.646723v2 (bioRxiv, 2025).

Tested on: N. benthamiana leaves
Conditions: DCIP, 100 μM, at least 5 biological replicates, ref [15]

For nona-arginine [R9], the “cellular internalization (in words)” value is listed as “efficiently internalized”.
